From ChEMBL document CHEMBL5316313, “Discovery of Novel 3-Phenylpiperidine Derivatives Targeting the β-Catenin/B-Cell Lymphoma 9 Interaction as a Single Agent and in Combination with the Anti-PD-1 Antibody for the Treatment of Colorectal Cancer” (J Med Chem, 2023) come the findings set out here.

For assay [1], the system named is HEK293. Briefly: cells. The settings on record: Homo sapiens, HEK293, 48 h.
For a further assay, the target named is T1, Beta catenin-BCL9 (Mus musculus, UniProt Q02248+Q9D219).
T1 sequence (Q02248 whole entry): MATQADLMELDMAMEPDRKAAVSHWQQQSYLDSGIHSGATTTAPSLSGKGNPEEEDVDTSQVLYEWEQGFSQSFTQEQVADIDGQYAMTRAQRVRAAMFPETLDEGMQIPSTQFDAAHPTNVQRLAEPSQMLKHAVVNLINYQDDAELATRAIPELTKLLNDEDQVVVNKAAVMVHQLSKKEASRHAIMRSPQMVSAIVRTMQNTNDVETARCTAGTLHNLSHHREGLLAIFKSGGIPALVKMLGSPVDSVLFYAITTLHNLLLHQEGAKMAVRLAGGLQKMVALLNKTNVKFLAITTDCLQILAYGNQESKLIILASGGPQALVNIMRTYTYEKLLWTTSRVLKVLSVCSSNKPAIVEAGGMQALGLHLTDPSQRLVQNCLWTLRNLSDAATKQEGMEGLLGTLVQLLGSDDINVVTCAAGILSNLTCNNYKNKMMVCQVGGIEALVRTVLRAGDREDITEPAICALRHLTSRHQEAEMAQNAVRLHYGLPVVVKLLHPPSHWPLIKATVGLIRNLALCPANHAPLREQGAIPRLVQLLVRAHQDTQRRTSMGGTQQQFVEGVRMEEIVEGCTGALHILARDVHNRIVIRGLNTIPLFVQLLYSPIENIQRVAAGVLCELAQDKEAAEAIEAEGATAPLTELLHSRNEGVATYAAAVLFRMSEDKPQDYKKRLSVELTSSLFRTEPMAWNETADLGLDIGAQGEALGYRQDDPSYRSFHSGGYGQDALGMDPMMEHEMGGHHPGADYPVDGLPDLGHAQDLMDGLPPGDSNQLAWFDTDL
T1 sequence (Q9D219 whole entry): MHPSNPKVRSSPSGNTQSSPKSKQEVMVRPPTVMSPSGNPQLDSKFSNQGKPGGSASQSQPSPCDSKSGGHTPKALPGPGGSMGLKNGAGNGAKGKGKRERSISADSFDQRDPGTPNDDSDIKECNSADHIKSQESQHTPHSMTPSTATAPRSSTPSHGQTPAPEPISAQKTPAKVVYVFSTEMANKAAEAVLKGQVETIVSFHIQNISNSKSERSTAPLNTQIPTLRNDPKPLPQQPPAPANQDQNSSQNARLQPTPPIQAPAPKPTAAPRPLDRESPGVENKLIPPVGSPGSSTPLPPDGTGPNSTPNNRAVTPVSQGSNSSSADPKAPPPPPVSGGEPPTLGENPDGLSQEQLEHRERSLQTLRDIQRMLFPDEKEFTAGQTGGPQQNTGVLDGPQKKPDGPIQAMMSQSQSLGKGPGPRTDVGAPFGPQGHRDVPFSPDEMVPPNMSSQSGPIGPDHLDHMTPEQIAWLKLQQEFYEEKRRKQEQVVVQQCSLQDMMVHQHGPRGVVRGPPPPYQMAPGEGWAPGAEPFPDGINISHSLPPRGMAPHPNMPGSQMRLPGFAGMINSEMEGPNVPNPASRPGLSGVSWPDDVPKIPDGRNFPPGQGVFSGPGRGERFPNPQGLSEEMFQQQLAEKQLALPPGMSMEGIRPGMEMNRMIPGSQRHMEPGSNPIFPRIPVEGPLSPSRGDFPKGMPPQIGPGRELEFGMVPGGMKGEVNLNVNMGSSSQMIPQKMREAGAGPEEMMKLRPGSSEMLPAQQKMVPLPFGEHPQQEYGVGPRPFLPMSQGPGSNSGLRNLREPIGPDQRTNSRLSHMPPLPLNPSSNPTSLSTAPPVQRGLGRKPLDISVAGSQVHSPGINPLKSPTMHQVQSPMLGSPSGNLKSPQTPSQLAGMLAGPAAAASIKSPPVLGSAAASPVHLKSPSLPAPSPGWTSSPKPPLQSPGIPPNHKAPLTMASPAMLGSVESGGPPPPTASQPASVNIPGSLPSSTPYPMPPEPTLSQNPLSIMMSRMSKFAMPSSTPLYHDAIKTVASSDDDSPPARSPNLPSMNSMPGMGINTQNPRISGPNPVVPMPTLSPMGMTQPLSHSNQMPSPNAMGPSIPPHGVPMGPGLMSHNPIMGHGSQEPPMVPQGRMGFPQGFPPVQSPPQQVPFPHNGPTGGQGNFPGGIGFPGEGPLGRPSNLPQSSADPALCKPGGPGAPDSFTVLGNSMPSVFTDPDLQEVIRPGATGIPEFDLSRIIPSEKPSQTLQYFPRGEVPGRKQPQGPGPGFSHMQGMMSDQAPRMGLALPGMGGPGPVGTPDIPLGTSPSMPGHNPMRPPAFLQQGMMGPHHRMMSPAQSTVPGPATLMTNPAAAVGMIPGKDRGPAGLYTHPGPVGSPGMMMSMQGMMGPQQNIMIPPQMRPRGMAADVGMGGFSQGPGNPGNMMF
Description: Inhibition of beta-catenin/BCL9 protein-protein interaction in Wnt-dependent mouse CT26 cells assessed as reduction in Axin2 expression level by qRT-PCR assay. The assay is classed as cell-based.

A further assay has as its system A549. Description: cells. The settings on record: Homo sapiens, A549, 48 h.
The test system of the next assay is CT26. Briefly: cells. The settings on record: Mus musculus, CT26, 48 h.
In assay [2] the test system is HCT-116. Description: cells. The settings on record: Homo sapiens, HCT-116, 48 h.
The next assay has as its system SW480. Briefly: cells. Particulars: Homo sapiens, SW480, 48 h.
A further assay concerns RKO. Briefly: cells. The settings on record: Homo sapiens, 48 h.
For assay [3], the system named is HEK293. Description: Antiproliferative activity against Wnt-independent human HEK293 cells assessed as cell growth inhibition at 40 uM incubated for 48 hrs by CellTiter-Glo assay. In kind it is functional, cell-based.
For assay [4], the system named is HEK293. Description: Induction of apoptosis in Wnt-independent human HEK293 cells assessed as necrotic cells at 20 uM incubated for 24 hrs by Annexin V-Alexa Fluor 647/PI staining based flow cytomtery (Rvb=1.82%). The assay is classed as functional.
Assay [5] deals with HEK293. Description: Induction of apoptosis in Wnt-independent human HEK293 cells assessed as early apoptotic cells at 20 uM incubated for 24 hrs by Annexin V-Alexa Fluor 647/PI staining based flow cytomtery (Rvb=17.4%). The assay is classed as functional.
Assay [6] has as its system HCT-116. Description: Induction of apoptosis in Wnt-dependent human HCT-116 cells assessed as early apoptotic cells at 10 uM incubated for 24 hrs by Annexin V-Alexa Fluor 647/PI staining based flow cytomtery (Rvb=14.3%). In kind it is functional.

Calls of active or inactive are those of the source. The calls are words filed in the database; no cut-off is given here.

By IC50 is commonly meant the concentration at which inhibition is half-maximal. For the compound `O=C1[C@H](Cc2ccc(O)cc2)N2C(=O)CCN(C(=O)NCc3ccccc3)[C@H]2CN1Cc1cccc2ccccc12`, the IC50 is 75.4 µM in the assay with HEK293 [1]; 4.62 µM at Beta catenin-BCL9; 54.1 µM in the assay with A549; 18.6 µM in the assay with CT26; 32.7 µM in the assay with HCT-116 [2]; 8.43 µM with SW480. The same compound registered an IC50 in the assay with RKO of 77.5 µM.

For `CC(C)c1ccc(-c2cccc(S(=O)(=O)N3CCCC(c4cccc(OC(C)(C)C(=O)NS(=O)(=O)c5ccc(C(F)(F)F)cc5)c4)C3)c2)cc1` (stereo not drawn), the IC50 with HEK293 [1] was > 40 µM; on Beta catenin-BCL9, 0.66 µM; in the assay with A549 it was > 40 µM; in the assay on CT26, 4.74 µM; with HCT-116 [2], 9.25 µM; in the assay with SW480 it was 16.2 µM. Besides, in the assay with RKO, the IC50 was > 40 µM. Besides, the result with HEK293 [3] was inactive. In addition, the values for the Activity in the assay with HEK293 [4], with HEK293 [5] and in the assay with HCT-116 [6] were 1.69%, 17% and 16.7%, respectively.
